System: VGF knockout mice
Assay: Biological activity of VGF polypeptide in knockout mice (body weight)
Format: in vivo
Settings: VGF gene knockout mice; intraperitoneal injection of 2 mg twice daily for five days; three of the four treated mice
Experimental: The biological activity of VGF polypeptides in knockout mice was analyzed using VGF polypeptides synthesized by the Amgen Boulder Peptide Technology group using standard peptide synthesis protocols. Following peptide synthesis, VGF polypeptides from different batches were pooled and lyophilized. The peptide content for each VGF polypeptide was determined by hydrolysis with HCl.
VGF gene knockout mice were obtained from Steve Salton of Mt. Sinai School of Medicine, New York, N.Y. Prior to administration of VGF polypeptide, knockout mice were housed under LD 12:12 conditions (i.e., 12 hours of light and 12 hours of dark). Twenty-four hours before VGF polypeptide injection, knockout mice were individually caged and moved to a temporary housing room where the mice were kept for the remainder of the experiment under LD 12:12 conditions.
VGF polypeptide was administered to knockout mice twice daily (at 9:00 a.m. and 6:00 p.m.) by intraperitoneal injection of 2 mg of VGF-1a (SEQ ID NO: 2; Table I). Prior to injection, VGF-1a polypeptide was diluted to 16% in aCSF Solution Buffer (126.6 mM NaCl, 2.6 mM KCl, 2.0 mM MgCl2 and 1.4 mM CaCl2, 10 mM NaPO4, pH 7.4). Knockout mice were administered VGF-1a polypeptide for five days and the body weight of each mouse was measured daily. The body weight of treated mice was measured daily for three days following the withdrawal of VGF-1a polypeptide.

VGF-1a: VGF polypeptide, amino acid sequence AQEEADAEE (listed as Rattus norvegicus)
gain in body weight: 10–15%

Reference: patent US7008924B1, “VGF fusion polypeptides” (Amgen, Inc., priority 1999, dated 2006)
